Residues, ends and D or L forms follow the SMILES beside them. *: point of attachment. Cbz = O=C(OCc1ccccc1)*
What was measured:
[1] = test system: Stat3-YFP in NIH3T3/v-Src/Stat3-YFP fibroblasts; assay: Fluorescence and confocal microscopy of Stat3-YFP signal; format: cell-based, mouse; parameters: Stat3-YFP fluorescence signal: dose or concentration left out as unconfirmed; conditions: for aggregated bodies (aggresomes) of Stat3-YFP: within 5 h of treatment, laser scanning confocal microscopy; for Stat3-YFP fluorescence signal: S3I-M2001, loss evident from 2-5 h, MG132 alone
Method: NIH3T3/vSrc cells were either stably transfected with Stat3-YFP construct (23), or growing in 96-well plates on chamber slides were transiently transfected with the Stat3-YFP plasmid (23) using Lipofectamine 2000 for 24 h according to the manufacturer's protocol (Roche), treated with or without S3I-M2001 for different times, and examined under Nikon Eclipse TE200 fluorescence microscope (Nikon). Images were captured and processed by NIKON NIS element-Basic research software.
Specimens were then washed 5 times with PBS, covered with cover slides with [sequence] mounting medium containing DAPI, and examined immediately under Leica TCS SP5 confocal microscope (Germany) at appropriate wavelengths depending on GFP or YFP. Images were captured and processed using the Leica TCS SP 5 software.

[2] = test system: NIH3T3/v-Src, MDA-MB-231 and MDA-MB-435 cells; assay: TUNEL and Annexin V binding/Flow Cytometry apoptosis, cells harbouring aberrant Stat3; format: cell-based, mouse, human; parameters: apoptosis (Annexin V) after transfection with Stat3 SH2 domain: dose or concentration left out as unconfirmed
Method: (§1) In some cases, cells were first transfected with the plasmid for the Stat3 SH2 (ST3-SH2) domain or mock-transfected (pcDNA3 empty vector) for 24 h or untransfected prior to treatment with S3I-M2001 for an additional 24-48 h. Cells were then detached and analyzed by Annexin V binding (BD Biosciences, San Diego) according to the manufacturer's protocol and Flow Cytometry to quantify the percent apoptosis.

[3] = test system: MDA-MB-231 tumor xenografts; assay: Human breast tumor xenografts in athymic nude mice; format: in vivo, mouse
Method: Six-week-old female athymic nude mice were purchased from Harlan and maintained in the institutional animal facilities approved by the American Association for Accreditation of Laboratory Animal Care. Athymic nude mice were injected subcutaneously in the left flank area with 5×10^6 human breast cancer MDA-MB-231 cells in […] of PBS. After 5 to 10 days, tumors of a diameter of 3 mm were established. Animals were grouped so that the mean tumor sizes in all groups were nearly identical, given S3I-[…] i.v. at 5, 10 and 20 mg/kg every 2 or every 3 days for 26 days and monitored every 2 or 3 days, and tumor sizes were measured with calipers. Tumor volume was calculated according to the formula V=0.52×a2×b, where a, smallest superficial diameter, b, largest superficial diameter.

[4] = test system: NIH3T3/v-Src and Panc-1 cells; assay: Soft-agar colony formation assay, cells with active Stat3; format: cell-based, mouse, human; conditions: treated every three days
Method: (§2) Colony formation assays were carried out in six-well dishes and colonies were enumerated as previously described (19). Treatment with S3I-M2001 was initiated 1 day after seeding cells in soft-agar suspension by adding […] of medium with or without compound, and repeated every three days, until large colonies were evident.

[5] = test system: NIH3T3/v-Src; assay: Matrigel invasion assay; format: cell-based, mouse; parameters: dose or concentration left out as unconfirmed; conditions: matrigel-coated filters, 24 h
Method: (§3) Cell migration experiments were carried out using Bio-Coat migration chambers (Becton Dickinson, Franklin, N.J.) of 24-well companion plates with cell culture inserts containing […] pore size filters, according to the manufacturer's protocol. […] After 24-h incubation (37° C., 5% CO2), the filters were removed and the upper surface was wiped with a cotton-tipped applicator to remove non-migratory cells. Cells that had migrated through the filter pores and attached to bottom surface of the filter were fixed and stained. The membranes were mounted on glass slides and cells from 10 random microscopic fields (×400 magnification) were counted. Cell invasion experiments were performed using same Bio-Coat invasion chambers (Becton Dickenson), as already described, except that here, filters ([…]) were used coated with the basement membrane matrigel. Percent inhibition is calculated as 100−y, where y equals residual number of stained cells in the treated/total number in the control ×100.

[6] = test system: MDA-MB-435, MDA-MB-231, Panc-1 cancer cells and NIH3T3/v-Src fibroblasts; assay: WST-1 cell viability assay, cells harbouring constitutively-active Stat3; format: cell-based, human, mouse; conditions: WST-1 and trypan blue exclusion/cell counting
Method: as §1

[7] = test system: NIH3T3/v-Src; assay: Cell migration assay (Bio-Coat chambers); format: cell-based, mouse; parameters: dose or concentration left out as unconfirmed; conditions: S3I-M2001, 24 h
Method: as §3

[8] = target: T1, Stat3 ubiquitination in NIH3T3/v-Src fibroblasts (Mus musculus, UniProt P42227); assay: Immunoblotting for ubiquitin of Stat3 immunoprecipitates; format: cell-based; conditions: up to 24 h treatment
T1 construct: endogenous in cells; host or cells: NIH3T3/v-Src
From the text: (§4) Whole-cell lysates prepared in boiling SDS sample-loading buffer. i.p. from lysates using monoclonal anti-Stat3 antibody (Cell Signaling Technology), and the probing of nitrocellulose membranes with primary antibodies and detection of horseradish peroxidase-conjugated secondary antibodies by enhanced chemiluminescence (Amersham Biosciences) were done, as previously described (13, 17, 19, 21). The probes used were anti-Stat3 (Santa Cruz), anti-pTyr705Stat3 (Cell Signaling Technology), anti-YFP antibodies (Santa Cruz), anti-Bcl-xL, anti-pSrc, anti-Src, anti-pJak1, anti-Jak1, anti-pEr1/2 and anti-Erk1/2, and b-actin (Cell Signaling Technology).

[9] = target: Lck SH2-GST (Homo sapiens, UniProt P06239); assay: Lck-SH2 domain ELISA assay; format: binding; parameters: dose or concentration left out as unconfirmed; conditions: S3I-M2001
Method: An ELISA assay for the binding of Lck-SH2 domain with its conjugate phosphopeptide, biotinyl-e-Ac-EPQpYEEIEL-OH, was carried out, as previously described (13, 22). Absorbance reading (450 nm) for the peroxidase reaction was determined with an ELISA plate reader.

[10] = test system: constitutively-active Stat3; assay: Constitutive Stat3 Tyr phosphorylation and activation in cells (EMSA, Western blot, immunocytostaining); format: cell-based, mouse, human; conditions: NIH3T3/v-Src, MDA-MB-231 and MDA-MB-435 cell lines
Method: Nuclear extract preparation from cells and EMSA were carried out as previously described (9-12, 16, 18, 40). Nuclear extract preparations from v-Src-transformed (NIH3T3/v-Src) or EGF-stimulated NIH3T3/hEGFR fibroblasts, or tumor cell lines were subjected to EMSA. The 32P-labeled oligonucleotide probe used was hSIE (high affinity sis-inducible element from the c-fos gene, m67 variant, as reported by Wagner et al. (42), and that binds Stat1 and Stat3. Except where indicated, inhibitor compound was pre-incubated with the nuclear extract for 30 min at room temperature prior to incubation with radiolabeled hSIE probe. Where necessary, cells were stimulated with recombinant human EGF (rhEGF) for 5-15 min prior to preparation of nuclear extracts. Bands corresponding to DNA-binding activities were scanned and quantified for each concentration of compound and plotted as percent of control (vehicle) against concentration of compound, from which the IC50 values were derived, as previously reported (9, 10, 42). […]

[11] = target: Stat3 activation over that of Stat1 (Mus musculus, UniProt P42227); assay: rhEGF-induced STAT activation in NIH3T3/hEGFR fibroblasts (EMSA); format: cell-based
Method: (§5) Nuclear extract preparation from cells and EMSA were carried out as previously described (9-12, 16, 18, 40). Nuclear extract preparations from v-Src-transformed (NIH3T3/v-Src) or EGF-stimulated NIH3T3/hEGFR fibroblasts, or tumor cell lines were subjected to EMSA. The 32P-labeled oligonucleotide probe used was hSIE (high affinity sis-inducible element from the c-fos gene, m67 variant, as reported by Wagner et al. (42), and that binds Stat1 and Stat3. Except where indicated, inhibitor compound was pre-incubated with the nuclear extract for 30 min at room temperature prior to incubation with radiolabeled hSIE probe. Where necessary, cells were stimulated with recombinant human EGF (rhEGF) for 5-15 min prior to preparation of nuclear extracts. Bands corresponding to DNA-binding activities were scanned and quantified for each concentration of compound and plotted as percent of control (vehicle) against concentration of compound, from which the IC50 values were derived, as previously reported (9, 10, 42).

[12] = test system: GFP in NIH3T3/v-Src/GFP fibroblasts
[13] = target: T2, Stat3:Stat3 dimer (Homo sapiens, UniProt P40763); assay: Dissociation-reassociation analysis with EMSA (pooled lysates of activated Stat1 and Stat3); format: biochemical; conditions: pooled lysates of activated Stat1 and Stat3, increasing concentration
T2 construct: made in house; host or cells: Sf-9 insect cells (baculovirus; co-infected with Jak1 and c-Src)
From the text: Infect of Sf-9 cells with Stat1, Stat3, Jak1, and c-Src recombinant baculoviruses and preparation of the cell lysates containing activated Stat1 or Stat3 have been previously described (9, 21).
In the previously reported dissociation-reassociation analysis (9, 10, 20), two independently-prepared cell lysate, one containing only activated Stat3:Stat3 dimer and the other containing only activated Stat1:Stat1 dimer (21), were mixed together and pre-treated with or without increasing concentration of S3I-M2001 and subjected to STAT DNA-binding assay with EMSA analysis.
The dissociation-reassociation analysis with EMSA analysis was performed, as previously done (10, 20).

[14] = test system: Panc-1; assay: Matrigel invasion assay; format: cell-based, human; parameters: dose or concentration left out as unconfirmed; conditions: matrigel-coated filters, 24 h
Method: as §3

[15] = test system: MDA-MB-231; assay: Matrigel invasion assay; format: cell-based, human; parameters: dose or concentration left out as unconfirmed; conditions: matrigel-coated filters, 24 h
Method: as §3

[16] = test system: Panc-1; assay: Cell migration assay (Bio-Coat chambers); format: cell-based, human; parameters: dose or concentration left out as unconfirmed; conditions: S3I-M2001, 24 h
Method: as §3

[17] = test system: MDA-MB-231; assay: Cell migration assay (Bio-Coat chambers); format: cell-based, human; parameters: dose or concentration left out as unconfirmed; conditions: S3I-M2001, 24 h
Method: as §3

[18] = test system: v-Src-induced Stat3-dependent pLucTKS3 luciferase reporter; assay: Transient transfection luciferase reporter, Stat3-dependent; format: cell-based, mouse; conditions: NIH3T3 fibroblasts co-transfected with v-Src
[19] = test system: normal NIH3T3, MCF-10A, MDA-MB-453, HUVEC, HAEC and HL-60 cells; assay: TUNEL and Annexin V apoptosis, cells without aberrant Stat3; format: cell-based, mouse, human; conditions: cells that do not contain aberrant Stat3
Method: as §1

[20] = target: T3, Stat3:Stat3 (Mus musculus, UniProt P42227); assay: STAT DNA-binding assay/EMSA in nuclear extracts (hSIE probe); format: biochemical; conditions: from EMSA IC50 values
T3 construct: Nuclear extract preparations from v-Src-transformed (NIH3T3/v-Src) or EGF-stimulated NIH3T3/hEGFR fibroblasts, or tumor cell lines were subjected to EMSA; endogenous in cells; host or cells: NIH3T3/v-Src or EGF-stimulated NIH3T3/hEGFR fibroblasts (nuclear extracts)
Method: as §5

[21] = test system: pJak1, pSrc and pErk1/2 (MAPKs); assay: Western blot of whole-cell lysates for non-Stat3 signalling proteins; format: cell-based, mouse; conditions: NIH3T3/v-Src fibroblasts
From the text: as §4

[22] = test system: Stat3 nuclear localization in EGF-stimulated NIH3T3/hEGFR; assay: Immunofluorescence/confocal microscopy of Stat3 nuclear localization; format: cell-based, mouse; parameters: dose or concentration left out as unconfirmed; conditions: for 3 h prior to rhEGF stimulation for 10 min
Method: NIH3T3/hEGFR cells were grown in multi-cell plates and treated with or without S3I-M2001 for 3 h prior to stimulation by rhEGF (10 ng/ml) for 10 min or NIH3T3/vSrc cells were grown in multi-cell plates or chamber slides and cells were fixed with 4% paraformaldehyde for 15 min. Cells were washed 3 times in PBS, permeabilized with 0.2% Triton X for 5 min, and further washed 3-4 times with PBS. Specimens were then blocked in 5% goat serum for 60 min and incubated with Stat3 (Cell Signaling Technology) or Hook2 (Santa Cruz, Santa Cruz, Calif.) antibody at 1:50 dilution at 4° C. overnight. Subsequently, cells were rinsed 4-5 times in PBS, incubated with Alexa fluor 488 rabbit antibody (Molecular probe, Eugene, Oreg.) for (Stat3 detection) or NL637 goat antibody (R&D Systems, Minneapolis, Minn.) for Hook2 for 1-2 h at room temperature in the dark. Specimens were then washed 5 times with PBS, covered with cover slides with [sequence] mounting medium containing DAPI, and examined immediately under Leica TCS SP5 confocal microscope (Germany) at appropriate wavelengths depending on GFP or YFP. Images were captured and processed using the Leica TCS SP 5 software.

[23] = test system: NIH3T3/v-Ras; assay: Soft-agar colony formation assay, v-Ras transformed fibroblasts; format: cell-based, mouse; conditions: NIH3T3/v-Ras lacking constitutively-active Stat3
Method: as §2

[24] = test system: Bcl-xL expression in NIH3T3/v-Src and MDA-MB-435 cells; assay: Western blot analysis for Bcl-xL; format: cell-based, mouse, human
From the text: as §4

Chain of Lck SH2-GST (P06239 127-224 limits assumed): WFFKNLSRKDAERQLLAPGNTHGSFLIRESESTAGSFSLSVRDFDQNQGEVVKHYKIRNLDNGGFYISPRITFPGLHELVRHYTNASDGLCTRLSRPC
T2 sequence (P40763 whole entry): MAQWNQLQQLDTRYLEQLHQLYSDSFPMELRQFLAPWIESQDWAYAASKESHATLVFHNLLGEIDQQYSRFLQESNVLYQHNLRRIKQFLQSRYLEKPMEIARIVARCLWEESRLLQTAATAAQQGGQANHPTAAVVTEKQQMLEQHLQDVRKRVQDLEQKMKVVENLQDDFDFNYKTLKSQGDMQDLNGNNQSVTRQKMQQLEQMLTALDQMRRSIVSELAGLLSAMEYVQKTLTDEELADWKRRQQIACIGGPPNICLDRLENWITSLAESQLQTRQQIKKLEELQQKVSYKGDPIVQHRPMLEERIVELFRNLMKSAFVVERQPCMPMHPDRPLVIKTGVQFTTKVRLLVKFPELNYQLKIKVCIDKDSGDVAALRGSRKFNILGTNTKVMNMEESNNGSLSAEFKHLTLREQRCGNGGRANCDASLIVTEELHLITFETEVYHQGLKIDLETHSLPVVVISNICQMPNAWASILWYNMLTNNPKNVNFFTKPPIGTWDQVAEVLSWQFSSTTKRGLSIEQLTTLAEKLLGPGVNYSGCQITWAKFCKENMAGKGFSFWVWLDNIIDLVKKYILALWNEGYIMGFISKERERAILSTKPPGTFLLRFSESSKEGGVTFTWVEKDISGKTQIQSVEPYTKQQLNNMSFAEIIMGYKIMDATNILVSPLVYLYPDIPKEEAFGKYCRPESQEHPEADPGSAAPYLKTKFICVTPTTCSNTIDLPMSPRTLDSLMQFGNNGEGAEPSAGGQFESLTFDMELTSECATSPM
T3 sequence (P42227 2-770 limits assumed): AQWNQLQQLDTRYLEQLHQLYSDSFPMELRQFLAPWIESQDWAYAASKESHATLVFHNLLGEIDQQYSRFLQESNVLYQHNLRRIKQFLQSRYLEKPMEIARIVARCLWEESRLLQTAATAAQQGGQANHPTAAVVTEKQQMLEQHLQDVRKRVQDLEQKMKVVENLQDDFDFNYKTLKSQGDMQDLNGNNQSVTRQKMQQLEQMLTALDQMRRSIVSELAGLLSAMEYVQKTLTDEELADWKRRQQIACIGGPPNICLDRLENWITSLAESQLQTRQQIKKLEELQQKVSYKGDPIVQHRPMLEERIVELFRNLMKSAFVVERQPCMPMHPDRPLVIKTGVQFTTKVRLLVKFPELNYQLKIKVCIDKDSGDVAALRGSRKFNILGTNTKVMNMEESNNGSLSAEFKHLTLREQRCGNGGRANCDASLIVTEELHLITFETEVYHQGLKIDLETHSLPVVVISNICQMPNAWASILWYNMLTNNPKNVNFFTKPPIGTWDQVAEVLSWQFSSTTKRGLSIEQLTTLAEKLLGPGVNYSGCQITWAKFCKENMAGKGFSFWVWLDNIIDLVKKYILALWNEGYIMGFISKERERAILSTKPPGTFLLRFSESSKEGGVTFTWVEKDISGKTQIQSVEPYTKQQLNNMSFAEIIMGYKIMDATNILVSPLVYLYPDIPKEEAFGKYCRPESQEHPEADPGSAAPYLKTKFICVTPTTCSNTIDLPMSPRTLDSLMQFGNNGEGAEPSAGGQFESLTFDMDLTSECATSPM
T1 sequence (P42227 whole entry): as the sequence (P40763 whole entry) above, with E760D counted along it
Chain of Stat3 activation over that of Stat1 (P42227 whole entry): as the sequence (P40763 whole entry) above, with E760D counted along it

## N.N.[Cl][Pt][Cl] [Cisplatin, reference compound]
[1]
  aggregated bodies (aggresomes) of Stat3-YFP: no such effect

## CCCCCCNC(=O)c1nc(-c2cccc3ccccc23)oc1Cc1ccc(OP(=O)(O)O)cc1 [S3I-M2001]
[2]; 3T3/v-Src/ST3-SH2 versus mock-transfected or untransfected, 24 h
  apoptosis (Annexin V) after transfection with Stat3 SH2 domain: diminished apoptosis
[2]; NIH3T3/v-Src, MDA-MB-231, MDA-MB-435, 48 h (TUNEL)
  apoptosis (TUNEL, Annexin V): strong apoptosis
[3]; highest dose applied, 20 mg kg-1 i.v.
  viability of animals: remained viable
[3]; i.v. 5, 10 and 20 mg kg-1 every 2 or 3 days for 26 days
  growth of tumors (tumor volume): strongly inhibited growth of tumors
[3]; tumors T1 and T2, 3 days after last 5 mg kg-1 injection, EMSA and Western blot
  Stat3 activity and pTyr levels in residual tumor tissue: abrogated Stat3 activity and pTyr levels
[4]
  growth in soft-agar: blocked growth in soft-agar
[5]
  inhibition of invasion: 28%
[6]
  selective loss of viability of cells with constitutively-active Stat3 versus cells lacking it: greater than 2 fold
[7]
  inhibition of migration: 76%
[8]
  level of Stat3 ubiquitination: strong and time-dependent increase
[1]
  Stat3-YFP fluorescence signal: time-dependent decrease
  aggregated bodies (aggresomes) of Stat3-YFP: accompanied by aggregated bodies
[9]
  binding of Lck SH2-GST to phosphopeptide biotinyl-e-Ac-EPQpYEEIEL-OH: minimal effect
[10]
  constitutive Stat3 Tyr phosphorylation and activation: inhibited constitutive Stat3 Tyr phosphorylation and activation
[11]
  rhEGF-induced Stat3 activation versus Stat1: preferentially inhibited
[12]
  GFP signal change: no evidence of GFP signal change
[13]
  Stat3:Stat3 DNA-binding activity in pooled lysates: concentration-dependent diminution
[14]
  inhibition of invasion: 38%
[15]
  inhibition of invasion: 48%
[16]
  inhibition of migration: 21%
[17]
  inhibition of migration: 37%
[18]
  Stat3-dependent pLucTKS3 luciferase reporter activity: inhibited
[19]
  apoptosis (TUNEL, Annexin V): minimal effect
[20]
  preferential inhibition of Stat3 activity over Stat1: 2 fold
[21]
  pJak1, pSrc and pErk1/2 levels: not repressed
[22]
  EGF-induced nuclear staining of Stat3: significantly attenuated
[23]
  growth in soft-agar: no appreciable effects
[24]
  Bcl-xL expression: diminished Bcl-xL expression

## CC(C)C[C@@H](C=O)NC(=O)[C@H](CC(C)C)NC(=O)[C@H](CC(C)C)NC(=O)OCc1ccccc1 [MG132, reference compound] (Cbz-Leu-Leu-Leu-aldehyde)
[1]
  Stat3-YFP fluorescence signal: no appreciable effect
[12]
  GFP signal change: no evidence of GFP signal change
